Assay results as given in US20070172421A1, “Substituted pyrrolidine-2-ones” (priority 2004, published 2007).
Counter-ions that a name gives are not always drawn.

Q: For `CC(=O)Nc1ccccc1C#C[C@H]1C[C@@H](CN2CCCCC2)C(=O)N1C.Cl`, which melting point is on record?
A: 135 to 140 °C

Q: With `CN1C(=O)[C@@H](CN2CCCCC2)C[C@H]1c1ccc(Br)cc1` (as salt: HCl) [Example A7, (−)-cis-5-(4-Bromo-phenyl)-1-methyl-3-piperidin-1-ylmethyl-pyrrolidin-2-one] as the compound, how does the melting point read?
A: 55 to 58 °C

Q: For `CN1C(=O)[C@@H](CN2CCCCC2)C[C@H]1c1ccc(-c2ccc3c(c2)OCO3)cc1` (relative stereo) [Example H5, cis-5-(4-(Benzo[1,3]dioxol-5-yl)-phenyl)-1-methyl-3-piperidin-1-ylmethyl-pyrrolidin-2-one], which melting point is on record?
A: 110 to 112 °C

Q: For `Cc1ccc([C@@H]2C[C@H](CN3CCCCC3)C(=O)N2C)cc1C.Cl` [Example A1], which melting point is on record?
A: 143 to 147 °C

Q: Which melting point does the source give for `Cc1ccc([C@@H]2C[C@H](CN3CCCCC3)C(=O)N2C)cc1C.Cl` [Example A2] here?
A: 138 to 142 °C

Q: Which melting point does the source give for `Cc1cc(C)cc([C@@H]2C[C@H](CN3CCCCC3)C(=O)N2C)c1.Cl` [Example A3] here?
A: 184 to 190 °C

Q: For `Cc1cc(C)cc([C@@H]2C[C@H](CN3CCCCC3)C(=O)N2C)c1.Cl` [Example A4], which melting point is on record?
A: 172 to 180 °C

Q: Which melting point does the source give for `CN1C(=O)[C@@H](CN2CCCCC2)C[C@H]1c1ccc2c(c1)CCCC2.Cl` [Example A5] here?
A: 208 to 210 °C

Q: Which melting point does the source give for `CN1C(=O)[C@@H](CN2CCCCC2)C[C@H]1c1ccc2c(c1)CCCC2.Cl` [Example A6] here?
A: 234 to 238 °C

Q: For `CN1C(=O)C(CN2CCCCC2)CC1C1CC1c1ccccc1Cl` (stereo not shown) [Example C2, 5-[2-(2-Chloro-phenyl)-cyclopropyl]-1-methyl-3-piperidin-1-ylmethyl-pyrrolidin-2-one], which melting point is on record?
A: 87 to 90 °C

Q: For `Cc1cccc(C#C[C@@H]2C[C@H](CN3CCCCC3)C(=O)N2C)c1.Cl` [Example D1], which melting point is on record?
A: 163 to 167 °C

Q: With `Cc1cccc(C#C[C@@H]2C[C@H](CN3CCCCC3)C(=O)N2C)c1.Cl` [Example D2] as the compound, how does the melting point read?
A: 169 to 172 °C

Q: Which melting point does the source give for `CN1C(=O)[C@@H](CN2CCCCC2)C[C@H]1C#Cc1ccccc1.Cl` [Example D3] here?
A: 197 to 201 °C

Q: For `CN1C(=O)[C@@H](CN2CCCCC2)C[C@H]1C#Cc1ccccc1.Cl` [Example D4], which melting point is on record?
A: 199 to 203 °C

Q: With `CN1C(=O)[C@@H](CN2CCCCC2)C[C@H]1C#Cc1ccccc1Cl.Cl` [Example D5] as the compound, how does the melting point read?
A: 166 to 169 °C

Q: For `CN1C(=O)[C@@H](CN2CCCCC2)C[C@H]1C#Cc1ccccc1Cl.Cl` [Example D6], which melting point is on record?
A: 160 to 165 °C

Q: With `CN1C(=O)[C@@H](CN2CCCCC2)C[C@H]1c1ccc(Br)s1` [Example E1, (+)-cis-5-(5-Bromo-thiophen-2-yl)-1-methyl-3-piperidin-1-ylmethyl-pyrrolidin-2-one] as the compound, how does the melting point read?
A: 69 to 71 °C

Q: With `CN1C(=O)[C@@H](CN2CCCCC2)C[C@H]1c1ccc(-c2cccc(Cl)c2)s1.Cl` [Example E9] as the compound, how does the melting point read?
A: 162 to 163 °C

Q: Which melting point does the source give for `CN1C(=O)[C@@H](CN2CCCCC2)C[C@H]1c1ccc(-c2cccc(Cl)c2)s1.Cl` [Example E10] here?
A: 155 to 158 °C

Q: Which melting point does the source give for `CN1C(=O)[C@@H](CN2CCCCC2)C[C@H]1c1cnc(-c2ccccc2Cl)s1.Cl` [Example F1] here?
A: 178 to 183 °C

Q: Which melting point does the source give for `CN1C(=O)[C@@H](CN2CCCCC2)C[C@H]1c1cnc(-c2ccccc2Cl)s1.Cl` [Example F2] here?
A: 171 to 176 °C

Q: Which melting point does the source give for `CN1C(=O)[C@@H](CN2CCCCC2)C[C@H]1c1cnc(-c2sccc2Cl)s1.Cl` [Example F3] here?
A: 215 to 220 °C

Q: Which melting point does the source give for `CN1C(=O)[C@@H](CN2CCCCC2)C[C@H]1c1cnc(-c2sccc2Cl)s1.Cl` [Example F4] here?
A: 207 to 210 °C

Q: Which melting point does the source give for `CN1C(=O)[C@@H](CN2CCCCC2)C[C@H]1c1ccc(-c2ccccc2Cl)cc1.Cl` [Example H2] here?
A: 134 to 139 °C

Q: Which melting point does the source give for `CN1C(=O)[C@@H](CN2CCCCC2)C[C@H]1c1ccc(-c2ccccc2Cl)cc1.Cl` [Example H3] here?
A: 130 to 135 °C
